This is an account of results in US20130184222A1, “[…] ACTIVE COMPOSITIONS AND THEIR METHODS OF USE” (AGIOS PHARMACEUTICALS, INC, priority 2010, published 2013).

Each structure is given as a SMILES string.

Chain of IDH1 R132H (O75874 whole entry R132H): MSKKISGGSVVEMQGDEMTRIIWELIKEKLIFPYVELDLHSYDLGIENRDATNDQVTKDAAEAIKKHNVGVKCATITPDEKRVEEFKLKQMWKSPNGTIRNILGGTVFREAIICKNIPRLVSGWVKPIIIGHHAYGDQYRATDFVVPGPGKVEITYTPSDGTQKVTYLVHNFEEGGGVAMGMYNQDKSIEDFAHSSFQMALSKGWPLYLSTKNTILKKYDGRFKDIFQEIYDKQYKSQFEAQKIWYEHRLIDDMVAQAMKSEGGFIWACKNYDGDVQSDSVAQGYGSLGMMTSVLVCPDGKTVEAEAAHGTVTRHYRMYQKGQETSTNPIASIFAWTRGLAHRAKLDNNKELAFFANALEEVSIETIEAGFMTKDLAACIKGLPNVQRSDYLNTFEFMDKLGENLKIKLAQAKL

This assay has as its target IDH1 R132H (Homo sapiens, UniProt O75874, R132H). Kind of assay: In vitro assay for IDH1 R132H inhibitors (NADPH/aKG, resazurin detection). It counts as biochemical. The settings on record: Table 4A; 0.2 μg/ml IDH1 R132H, 50 minutes at room temperature; read-out: IC50 (uM), IDH1 R132H Inhibition. The protocol:
Assays were conducted in a volume of 76 μl assay buffer (150 mM NaCl, 10 mM MgCl2, 20 mM Tris pH 7.5, 0.03% bovine serum albumin) as follows in a standard 384-well plate: To 25 ul of substrate mix (8 uM NADPH, 2 mM aKG), 1 μl of test compound was added in DMSO. The plate was centrifuged briefly, and then 25 μl of enzyme mix was added (0.2 μg/ml IDH1 R132H) followed by a brief centrifugation and shake at 100 RPM. The reaction was incubated for 50 minutes at room temperature, then 25 μl of detection mix (30 μM resazurin, […]) was added and the mixture further incubated for 5 minutes at room temperature. The conversion of resazurin to resorufin was detected by fluorescent spectroscopy at Ex544 Em590 c/o 590.
The compounds of Formula I set forth in Table 1 and the compounds set forth in Table 2 were tested in this assay and the results set forth below in Table 4A and 4B.
With `Cc1ccccc1[C@@H](C(=O)NC1CCCCC1)N(C(=O)Cc1cccs1)c1cccc(F)c1` (single isomer, unassigned) [Compound 54], the IC50 – broadly, the point on the concentration scale where inhibition reaches its midpoint – was no more than 0.1 µM.

Regarding `COc1cccc(N(C(=O)Cc2cccs2)C(C(=O)NC2CCCC2)c2ccccc2)c1` (centres unmarked) [Compound 1], the IC50 was in the range of 0.1 to 1 µM.

Consider `O=C(NC1CCCC1)C(c1ccccc1Cl)N(C(=O)Cc1cccs1)c1ccccc1F` (centres unmarked) [Compound 2], for which the concentration for half-maximal inhibition (IC50) lay within 0.1 to 1 µM.

`COc1cccc(N(C(=O)Cc2cccs2)C(C(=O)NC2CCCC2)c2ccccc2Cl)c1` (centres unmarked) [Compound 3]: the IC50 was 0.1 to 1 µM.

Turning to `O=C(NC1CCCCC1)C(c1ccccc1Cl)N(C(=O)c1ccccn1)c1ccccc1` (centres unmarked) [Compound 4], the IC50 is 0.1 to 1 µM.

For the compound `Cc1ccccc1C(C(=O)NC1CCCC1)N(C(=O)Cn1nnc2ccccc21)c1ccccc1F` (centres unmarked) [Compound 5], the IC50 lay in the range of 0.1 to 1 µM.

For the compound `O=C(NC1CCCC1)C(c1ccccc1F)N(C(=O)Cc1cccs1)c1ccc2c(c1)OCO2` (centres unmarked) [Compound 6], the IC50 lay within 0.1 to 1 µM.

With `Cc1ccc(N(C(=O)c2ccccn2)C(C(=O)NC2CCCCC2)c2ccccc2)cc1F` (centres unmarked) [Compound 7], the IC50 lay within 1 to 10 µM.

`Cc1ccccc1C(C(=O)NC1CCCC1)N(C(=O)Cc1cccs1)c1cccc(F)c1` (centres unmarked) [Compound 8]: the IC50 is no more than 0.1 µM.

Consider `Cc1ccc(N(C(=O)c2sc(C)nc2C)C(C(=O)NC2CCCC2)c2ccccc2)cc1` (centres unmarked) [Compound 9], for which the IC50 lay within 1 to 10 µM.

As to `O=C(NC1CCCCC1)C(c1ccccc1F)N(C(=O)CNS(=O)(=O)c1ccccc1)c1ccccc1F` (centres unmarked) [Compound 10], the IC50 was 0.1 to 1 µM.

`CC(C)(C)NC(=O)C(c1ccccc1)N(C(=O)Cc1cccs1)c1ccccc1` (centres unmarked) [Compound 11]: the IC50 was 1 to 10 µM.

`CC(C(=O)NCc1ccccc1)(c1cccc(F)c1)N(C(=O)Cc1cccs1)c1ccccc1` (centres unmarked) [Compound 12]: the IC50 lay in the range of 10 to 100 µM.

As for `Cc1ccccc1N(C(=O)Cc1cccs1)C(C(=O)NC1CCCCC1)c1cccc(F)c1` (centres unmarked) [Compound 13], the IC50 is 0.1 to 1 µM.

With `Cc1ccccc1N(C(=O)Cc1cccs1)C(C(=O)NC(C)(C)C)c1cccc(F)c1` (centres unmarked) [Compound 14], the concentration for half-maximal inhibition (IC50) fell in the range of 10 to 100 µM.

Turning to `Cc1ccccc1C(C(=O)NC1CCCCC1)N(C(=O)Cc1cccs1)c1cccc(F)c1` (centres unmarked) [Compound 15], the IC50 is no more than 0.1 µM.

Regarding `CC(C)C(C(=O)NC1CCCC1)N(C(=O)Cc1cccs1)c1cccc(F)c1` (centres unmarked) [Compound 16], the IC50 was no less than 100 µM.

In the case of `O=C(NC1CCCC1)C(c1ccccc1)N(C(=O)Cc1cccs1)c1ccccc1` (centres unmarked) [Compound 17], the IC50 lay in the range of 0.1 to 1 µM.

Turning to `CCC(C(=O)NC1CCCC1)N(C(=O)Cc1cccs1)c1cccc(F)c1` (centres unmarked) [Compound 18], the IC50 is no less than 100 µM.

In the case of `COc1ccc(C(C(=O)NC2CCCC2)N(C(=O)Cc2cccs2)c2cccc(F)c2)cc1OC` (centres unmarked) [Compound 19], the IC50 was no less than 100 µM.

For `O=C(NC1CCCC1)C(c1cccc([N+](=O)[O-])c1)N(C(=O)Cc1cccs1)c1cccc(F)c1` (centres unmarked) [Compound 20], the IC50 was no less than 100 µM.

Turning to `CC(C)(C(=O)NC1CCCC1)N(C(=O)Cc1cccs1)c1cccc(F)c1` [Compound 21], the IC50 is no less than 100 µM.

For `O=C(Cc1cccs1)N(c1cccc(F)c1)C1(C(=O)NC2CCCC2)CCC1` [Compound 22], the IC50 is no less than 100 µM.

Take `O=C(Cc1cccs1)N(c1cccc(F)c1)C1(C(=O)NC2CCCC2)CCCC1` [Compound 23]: the IC50 was in the range of 10 to 100 µM.

For `O=C(Cc1cccs1)N(c1cccc(F)c1)C1(C(=O)NC2CCCC2)CCCCC1` [Compound 24], the IC50 was in the range of 1 to 10 µM.

In the case of `N#Cc1ccc(C(C(=O)NC2CCCC2)N(C(=O)Cc2cccs2)c2cccc(F)c2)cc1` (centres unmarked) [Compound 25], the IC50 was no less than 100 µM.

Turning to `COc1ccccc1C(C(=O)NC1CCCC1)N(C(=O)Cc1cccs1)c1cccc(F)c1` (centres unmarked) [Compound 26], the IC50 is 0.1 to 1 µM.

On to `O=C(NC1CCCC1)C(c1ccc(C(F)(F)F)cc1)N(C(=O)Cc1cccs1)c1cccc(F)c1` (centres unmarked) [Compound 27], for which the IC50 is no less than 100 µM.

Consider `Cc1ccccc1C(C(=O)NC1CCCC1)N(C(=O)CNS(=O)(=O)c1ccccc1)c1cccc(F)c1` (centres unmarked) [Compound 28], for which the IC50 lay in the range of 0.1 to 1 µM.

Regarding `Cc1ccccc1C(C(=O)NC1CCCCC1)N(C(=O)CNS(=O)(=O)c1ccccc1)c1cccc(F)c1` (centres unmarked) [Compound 29], the IC50 was 0.1 to 1 µM.

Consider `O=C(NC1CCCCC1)C(c1ccccc1)N(C(=O)Cc1cccs1)c1cccc(F)c1` (centres unmarked) [Compound 30], for which the IC50 lay within 0.1 to 1 µM.

As for `O=C(NC1CCCCC1)C(c1ccccc1Cl)N(C(=O)Cc1cccs1)c1cccc(F)c1` (centres unmarked) [Compound 31], the IC50 was no more than 0.1 µM.

Turning to `Cc1ccccc1C(C(=O)NC1CCCCC1)N(C(=O)c1ccccn1)c1cccc(F)c1` (centres unmarked) [Compound 32], the IC50 is 1 to 10 µM.

For the compound `O=C(NC1CCCCC1)C(c1ccccc1F)N(C(=O)c1ccccn1)c1cccc(F)c1` (centres unmarked) [Compound 33], the IC50 lay within 0.1 to 1 µM.

With `O=C(NC1CCCCC1)C(c1ccccc1F)N(C(=O)Cc1cccs1)c1cccc(F)c1` (centres unmarked) [Compound 34], the IC50 was no more than 0.1 µM.

`O=C(NC1CCCCC1)C(c1ccccc1Cl)N(C(=O)Cc1cccs1)c1ccccc1F` (centres unmarked) [Compound 35]: the IC50 fell in the range of 0.1 to 1 µM.

As for `O=C(NC1CCCCC1)C(c1ccccc1)N(C(=O)Cc1cccs1)c1ccccc1F` (centres unmarked) [Compound 36], the IC50 is 0.1 to 1 µM.

For `O=C(NC1CCCCC1)C(c1ccccc1F)N(Cc1cccs1)C(=O)c1ccccn1` (centres unmarked) [Compound 37], the IC50 fell in the range of 10 to 100 µM.

Turning to `O=C(NC1CCCCC1)C(c1ccccc1F)N(Cc1cccs1)C(=O)Cc1cccs1` (centres unmarked) [Compound 38], the IC50 was in the range of 1 to 10 µM.

As to `Cc1ccccc1C(C(=O)NC1CCCCC1)N(C(=O)Cc1cccs1)c1ccccc1F` (centres unmarked) [Compound 39], the IC50 was 0.1 to 1 µM.

With `Cc1ccccc1C(C(=O)NC1CCCCC1)N(C)C(=O)Cc1cccs1` (centres unmarked) [Compound 40], the IC50 is no less than 100 µM.

As for `Cc1ccccc1C(C(=O)NC1CCCCC1)N(C(=O)Cc1cccs1)C(C)C` (centres unmarked) [Compound 41], the IC50 is 10 to 100 µM.

For `Cc1ccccc1C(C(=O)NC1CCCCC1)N(C(=O)Cc1cccs1)c1ccccc1` (centres unmarked) [Compound 42], the IC50 lay in the range of 0.1 to 1 µM.

Take `O=C(NC1CCCC1)C(c1ccccc1F)N(C(=O)Cc1cccs1)c1cccc(F)c1` (centres unmarked) [Compound 43]: the half-maximal inhibitory concentration (IC50) lay within 0.1 to 1 µM.

Consider `O=C(NC1CCCC1)C(c1ccccc1Cl)N(C(=O)Cc1cccs1)c1cccc(F)c1` (centres unmarked) [Compound 44], for which the IC50 is no more than 0.1 µM.

Consider `O=C(NC1CCCC1)C(c1ccccc1)N(C(=O)Cc1cccs1)c1cccc(F)c1` (centres unmarked) [Compound 45], for which the IC50 fell in the range of 0.1 to 1 µM.

As to `Cc1ccccc1C(C(=O)NC1CCCC1)N(C(=O)Cc1cccs1)c1ccccc1F` (centres unmarked) [Compound 46], the IC50 lay in the range of 0.1 to 1 µM.

With `O=C(NC1CCCC1)C(c1ccccc1F)N(C(=O)Cc1cccs1)c1ccccc1F` (centres unmarked) [Compound 47], the IC50 is 0.1 to 1 µM.

As to `O=C(NC1CCCC1)C(c1ccccc1)N(C(=O)Cc1cccs1)c1ccccc1F` (centres unmarked) [Compound 48], the half-maximal inhibitory concentration (IC50) fell in the range of 0.1 to 1 µM.

On to `COc1cccc(C(C(=O)NC2CCCCC2)N(C(=O)Cc2cccs2)c2cccc(F)c2)c1` (centres unmarked) [Compound 49], for which the IC50 was 0.1 to 1 µM.

On to `O=C(NC1CCCCC1)C(c1ccc(F)cc1)N(C(=O)Cc1cccs1)c1cccc(F)c1` (centres unmarked) [Compound 50], for which the IC50 fell in the range of 0.1 to 1 µM.

As for `Cc1ccsc1C(C(=O)NC1CCCCC1)N(C(=O)Cc1cccs1)c1cccc(F)c1` (centres unmarked) [Compound 51], the IC50 lay within 0.1 to 1 µM.

Turning to `CCOc1cc(C(C(=O)NC2CCCCC2)N(C(=O)Cc2cccs2)c2cccc(F)c2)ccc1OC` (centres unmarked) [Compound 52], the IC50 was no less than 100 µM.

As for `Cc1ccccc1[C@H](C(=O)NC1CCCCC1)N(C(=O)Cc1cccs1)c1cccc(F)c1` [Compound 53], the IC50 was in the range of 1 to 10 µM.

On to `O=C(NC1CCCCC1)C(c1ccccc1)N(C(=O)c1ccccn1)c1cccc(F)c1` (centres unmarked) [Compound 55], for which the IC50 fell in the range of 1 to 10 µM.

`O=C(NC1CCCCC1)C(c1ccccc1Cl)N(C(=O)c1ccccn1)c1cccc(F)c1` (centres unmarked) [Compound 56]: the IC50 is 0.1 to 1 µM.

As for `O=C(NC1CCCCC1)C(c1ccccc1Cl)N(C(=O)c1ccccn1)c1ccccc1F` (centres unmarked) [Compound 57], the IC50 lay in the range of 1 to 10 µM.

With `O=C(NC1CCCCC1)C(c1ccccc1)N(C(=O)c1ccccn1)c1ccccc1F` (centres unmarked) [Compound 58], the IC50 was 1 to 10 µM.

Take `Cc1ccccc1C(C(=O)NC1CCCCC1)N(C(=O)c1ccccn1)c1ccccc1F` (centres unmarked) [Compound 59]: the IC50 fell in the range of 1 to 10 µM.

Turning to `O=C(NC1CCCCC1)C(c1ccccc1F)N(C(=O)c1ccccn1)c1ccccc1F` (centres unmarked) [Compound 60], the IC50 lay in the range of 0.1 to 1 µM.

Take `O=C(NC1CCCCC1)C(C1CCCC1)N(C(=O)Cc1cccs1)c1cccc(F)c1` (centres unmarked) [Compound 61]: the IC50 was 1 to 10 µM.

`O=C(NC1CCCCC1)C(c1ccccc1[N+](=O)[O-])N(C(=O)Cc1cccs1)c1cccc(F)c1` (centres unmarked) [Compound 62]: the IC50 was 0.1 to 1 µM.

`O=C(NC1CCCCC1)C(C1CCCCC1)N(C(=O)Cc1cccs1)c1cccc(F)c1` (centres unmarked) [Compound 63]: the half-inhibitory concentration (IC50) was in the range of 1 to 10 µM.

Regarding `CCOc1ccccc1C(C(=O)NC1CCCCC1)N(C(=O)Cc1cccs1)c1cccc(F)c1` (centres unmarked) [Compound 64], the IC50 lay within 1 to 10 µM.

`CCc1ccccc1C(C(=O)NC1CCCCC1)N(C(=O)Cc1cccs1)c1cccc(F)c1` (centres unmarked) [Compound 65]: the IC50 lay in the range of 0.1 to 1 µM.

As for `O=C(NC1CCCCC1)C(c1ccc(-c2ccccc2)cc1)N(C(=O)Cc1cccs1)c1cccc(F)c1` (centres unmarked) [Compound 66], the half-inhibitory concentration (IC50) was no less than 100 µM.

On to `O=C(NC1CCCCC1)C(c1ccccc1O)N(C(=O)Cc1cccs1)c1cccc(F)c1` (centres unmarked) [Compound 67], for which the IC50 lay in the range of 0.1 to 1 µM.

`O=C(NC1CCCCC1)C(c1ccc(Br)cc1)N(C(=O)Cc1cccs1)c1cccc(F)c1` (centres unmarked) [Compound 68]: the IC50 is no less than 100 µM.
